From ChEMBL document CHEMBL3853293, “Part-1: Design, synthesis and biological evaluation of novel bromo-pyrimidine analogs as tyrosine kinase inhibitors” (Eur J Med Chem, 2016)

Experiments:
[1] = target: Bcr/Abl fusion protein (Homo sapiens, UniProt P00519); assay: Inhibition of BRC/ABL1 (unknown origin) after 40 mins by ADP-Glo assay; format: protein assay
[2] = Cytotoxicity against human U937 cells assessed as reduction in cell viability after 96 hrs by MTT assay; conditions: U-937, 96 h
[3] = Cytotoxicity against human HCT116 cells assessed as reduction in cell viability after 96 hrs by MTT assay; conditions: HCT-116, 96 h
[4] = Cytotoxicity against human K562 cells assessed as reduction in cell viability after 96 hrs by MTT assay; conditions: K562, 96 h
[5] = Cytotoxicity against human L02 cells assessed as reduction in cell viability after 96 hrs by MTT assay; format: toxicity, cell-based
[6] = Cytotoxicity against human A549 cells assessed as reduction in cell viability after 96 hrs by MTT assay; conditions: A549, 96 h

Chain of Bcr/Abl fusion protein (P00519 whole entry, the tested form may be a part): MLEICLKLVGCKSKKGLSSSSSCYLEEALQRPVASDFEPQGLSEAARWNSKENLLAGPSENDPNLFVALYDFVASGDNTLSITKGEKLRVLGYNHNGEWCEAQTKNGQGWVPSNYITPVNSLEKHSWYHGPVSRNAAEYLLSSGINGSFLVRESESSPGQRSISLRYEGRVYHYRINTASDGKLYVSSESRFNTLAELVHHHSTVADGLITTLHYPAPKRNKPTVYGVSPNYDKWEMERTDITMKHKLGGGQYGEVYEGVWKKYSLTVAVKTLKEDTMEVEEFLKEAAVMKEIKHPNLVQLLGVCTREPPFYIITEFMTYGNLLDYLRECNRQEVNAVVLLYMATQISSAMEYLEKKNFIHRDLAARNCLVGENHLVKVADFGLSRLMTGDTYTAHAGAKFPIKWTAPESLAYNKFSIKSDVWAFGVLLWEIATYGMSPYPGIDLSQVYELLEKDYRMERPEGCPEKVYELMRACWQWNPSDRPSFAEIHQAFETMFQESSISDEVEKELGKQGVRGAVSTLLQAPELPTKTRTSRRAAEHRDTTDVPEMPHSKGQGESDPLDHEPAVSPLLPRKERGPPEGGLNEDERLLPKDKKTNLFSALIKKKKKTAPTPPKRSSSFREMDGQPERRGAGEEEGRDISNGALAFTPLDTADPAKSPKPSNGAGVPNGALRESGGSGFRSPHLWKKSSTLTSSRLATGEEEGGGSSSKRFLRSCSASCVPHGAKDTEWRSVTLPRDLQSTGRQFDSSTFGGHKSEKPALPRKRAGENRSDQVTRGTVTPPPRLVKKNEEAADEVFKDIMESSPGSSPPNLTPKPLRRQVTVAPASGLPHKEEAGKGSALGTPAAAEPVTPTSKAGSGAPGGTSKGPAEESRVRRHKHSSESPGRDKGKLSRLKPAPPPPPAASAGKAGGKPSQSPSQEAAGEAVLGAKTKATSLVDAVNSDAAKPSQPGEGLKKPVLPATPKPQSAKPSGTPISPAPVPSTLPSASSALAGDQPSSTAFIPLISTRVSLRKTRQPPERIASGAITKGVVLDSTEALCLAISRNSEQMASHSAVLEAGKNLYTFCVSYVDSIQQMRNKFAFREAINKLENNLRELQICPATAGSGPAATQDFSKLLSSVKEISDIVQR
Chain of Bcr/Abl fusion protein (P11274 whole entry, further chain, the tested form may be a part): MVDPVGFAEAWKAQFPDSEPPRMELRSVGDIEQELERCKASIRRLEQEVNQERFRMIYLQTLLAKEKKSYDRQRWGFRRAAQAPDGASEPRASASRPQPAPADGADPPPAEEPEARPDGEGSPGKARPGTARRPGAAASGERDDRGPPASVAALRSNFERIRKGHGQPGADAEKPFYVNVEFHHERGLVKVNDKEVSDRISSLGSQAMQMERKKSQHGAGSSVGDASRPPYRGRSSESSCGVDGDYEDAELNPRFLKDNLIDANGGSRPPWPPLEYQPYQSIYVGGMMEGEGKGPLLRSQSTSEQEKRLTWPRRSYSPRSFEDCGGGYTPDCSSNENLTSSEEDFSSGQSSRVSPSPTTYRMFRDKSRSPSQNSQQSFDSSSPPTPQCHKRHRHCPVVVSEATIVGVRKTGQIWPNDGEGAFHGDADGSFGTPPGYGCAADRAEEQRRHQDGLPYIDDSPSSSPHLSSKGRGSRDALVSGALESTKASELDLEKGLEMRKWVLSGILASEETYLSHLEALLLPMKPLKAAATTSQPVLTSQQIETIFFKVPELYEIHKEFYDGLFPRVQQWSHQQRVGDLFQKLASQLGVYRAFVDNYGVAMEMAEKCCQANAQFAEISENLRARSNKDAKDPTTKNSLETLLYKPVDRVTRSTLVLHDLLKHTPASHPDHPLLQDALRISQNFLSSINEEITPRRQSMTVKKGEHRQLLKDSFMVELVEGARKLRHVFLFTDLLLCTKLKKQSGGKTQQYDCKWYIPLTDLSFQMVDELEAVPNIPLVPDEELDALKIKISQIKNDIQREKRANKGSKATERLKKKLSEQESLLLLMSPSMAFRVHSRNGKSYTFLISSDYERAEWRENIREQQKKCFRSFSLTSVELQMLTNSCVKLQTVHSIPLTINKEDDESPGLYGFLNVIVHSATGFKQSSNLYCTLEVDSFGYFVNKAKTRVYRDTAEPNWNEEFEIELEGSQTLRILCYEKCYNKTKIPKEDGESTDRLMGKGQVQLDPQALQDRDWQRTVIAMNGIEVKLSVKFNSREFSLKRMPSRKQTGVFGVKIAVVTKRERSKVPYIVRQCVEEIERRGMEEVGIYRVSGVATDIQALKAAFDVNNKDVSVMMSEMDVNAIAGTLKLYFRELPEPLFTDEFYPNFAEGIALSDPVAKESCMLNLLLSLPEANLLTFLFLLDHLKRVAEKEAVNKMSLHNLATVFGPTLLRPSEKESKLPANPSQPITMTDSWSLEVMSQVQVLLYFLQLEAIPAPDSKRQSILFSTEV

| SMILES | IC50 [1] [µM] | IC50 [2] | IC50 [3] | IC50 [4] | IC50 at 96 h [5] [µM] | IC50 [6] |
| --- | --- | --- | --- | --- | --- | --- |
| O=C(c1ccc(F)cc1)N1CCN(c2nc(N3CCOCC3)ncc2Br)CC1 | 0.024 | 9.89 µg/mL | 4.56 µg/mL | 9.45 µg/mL | > 40 | 8.67 µM |
| Cc1noc(C)c1S(=O)(=O)N1CCN(c2nc(N3CCOCC3)ncc2Br)CC1 | > 500 | 11.7 µM | 8.34 µM | 9.45 µg/mL | > 40 | 10.5 µM |
| CS(=O)(=O)N1CCN(c2nc(N3CCOCC3)ncc2Br)CC1 |  | 11.6 µM | 8.11 µM | 12 µM | > 40 | 9.71 µM |
| O=C(c1cc(Cl)ccc1Cl)N1CCN(c2nc(Cl)ncc2Br)CC1 | 2.28 | 11.3 µM | 8.23 µM | 9.22 µg/mL | > 40 | 10.5 µM |
| N#Cc1ccc(S(=O)(=O)N2CCN(c3nc(N4CCOCC4)ncc3Br)CC2)cc1 | > 500 | 12.2 µM | 8.33 µM | 10.5 µg/mL | > 40 | 12.4 µM |
| O=S(=O)(c1ccc2ccccc2c1)N1CCN(c2nc(N3CCOCC3)ncc2Br)CC1 | 0.44 | 15.1 µM | 9.56 µM | 10.3 µg/mL | > 40 | 8.23 µg/mL |
| Cc1ccc(S(=O)(=O)N2CCN(c3nc(N4CCOCC4)ncc3Br)CC2)c(C)c1 | 1.69 | 12.8 µM | 8.56 µM | 9.09 µg/mL | > 40 | 11.2 µM |
| O=S(=O)(c1ccc(F)cc1)N1CCN(c2nc(N3CCOCC3)ncc2Br)CC1 | 4.52 | 11.1 µM | 8.11 µM | 9.32 µg/mL | > 40 | 9.34 µM |
| CC(C)(C)c1ccc(S(=O)(=O)N2CCN(c3nc(N4CCOCC4)ncc3Br)CC2)cc1 | 1.15 | 12.8 µM | 8.67 µM | 9.09 µg/mL | > 40 | 12.4 µM |
| Cc1noc(C)c1S(=O)(=O)N1CCN(c2nc(Cl)ncc2Br)CC1 | 0.56 |  |  |  |  |  |
| O=S(=O)(c1cc(Cl)sc1Cl)N1CCN(c2nc(N3CCOCC3)ncc2Br)CC1 | > 500 | 13.6 µM | 9.23 µM | 10.1 µg/mL | > 40 | 9.56 µM |
| O=C(c1ccc(Cl)cc1[N+](=O)[O-])N1CCN(c2nc(N3CCOCC3)ncc2Br)CC1 | > 500 | 13.1 µM | 6.43 µM | 13.2 µM | > 40 | 9.76 µM |
| O=C(c1c(F)cccc1F)N1CCN(c2nc(N3CCOCC3)ncc2Br)CC1 | 0.89 | 13.1 µM | 5.56 µM | 11.2 µg/mL | > 40 | 7.17 µg/mL |
| CCCS(=O)(=O)N1CCN(c2nc(Cl)ncc2Br)CC1 | > 500 |  |  |  |  |  |
| Cc1nc(Nc2ncc(C(=O)Nc3c(C)cccc3Cl)s2)cc(N2CCN(CCO)CC2)n1 [DASATINIB] |  | 10.2 µM | 5.23 µM | 12 µM | > 40 | 8.37 µM |

More lines, main results first:

| IC50 [1] [µM] | SMILES | IC50 [2] | IC50 [3] | IC50 [4] | IC50 at 96 h [5] [µM] | IC50 [6] |
| --- | --- | --- | --- | --- | --- | --- |
| 58 | Cc1ccc(S(=O)(=O)N2CCN(c3nc(Cl)ncc3Br)CC2)cc1 |  |  |  |  |  |
| 0.22 | O=S(=O)(C1CC1)N1CCN(c2nc(N3CCOCC3)ncc2Br)CC1 | 12.1 µM | 8.11 µM | 9.12 µg/mL | > 40 | 12 µM |
| 0.019 | O=C(c1ccc(F)cc1)N1CCN(c2nc(Cl)ncc2Br)CC1 | 9.12 µg/mL | 8.11 µM | 8.82 µg/mL | > 40 | 7.34 µg/mL |
| 0.32 | O=S(=O)(c1ccc(-c2ccccc2)cc1)N1CCN(c2nc(N3CCOCC3)ncc2Br)CC1 | 11.2 µM | 9.12 µM | 9.32 µg/mL | > 40 | 10.1 µM |
| 122 | O=S(=O)(c1ccc(F)cc1)N1CCN(c2nc(Cl)ncc2Br)CC1 |  |  |  |  |  |
| 16.2 | O=C(c1cc(I)ccc1Cl)N1CCN(c2nc(Cl)ncc2Br)CC1 | 12.2 µM | 6.51 µM | 8.67 µg/mL | > 40 | 12.2 µM |
| 1.98 | Cc1ccc(S(=O)(=O)N2CCN(c3nc(N4CCOCC4)ncc3Br)CC2)cc1 | 10.5 µM | 7.65 µM | 10.3 µg/mL | > 40 | 9.23 µM |
| 0.255 | CS(=O)(=O)N1CCN(c2nc(Cl)ncc2Br)CC1 |  |  |  |  |  |
| 2.58 | O=C(c1ccc(Cl)cc1[N+](=O)[O-])N1CCN(c2nc(Cl)ncc2Br)CC1 | 14.3 µM | 7.34 µM | 10.2 µg/mL | > 40 | 12.1 µM |
| 0.0206 | O=[N+]([O-])c1cc(C(F)(F)F)ccc1S(=O)(=O)N1CCN(c2nc(N3CCOCC3)ncc2Br)CC1 | 7.14 µg/mL | 4.02 µg/mL | 9.65 µg/mL | > 40 | 6.65 µg/mL |
| 0.019 | O=S(=O)(c1ccc(C(F)(F)F)cc1)N1CCN(c2nc(N3CCOCC3)ncc2Br)CC1 | 7.54 µg/mL | 4.32 µg/mL | 9.95 µg/mL | > 40 | 6.25 µg/mL |
| 2.65 | O=C(c1c(F)cccc1F)N1CCN(c2nc(Cl)ncc2Br)CC1 | 12.4 µM | 4.97 µg/mL | 10.2 µg/mL | > 40 | 12.6 µM |
| 0.385 | COC(=O)NC(C(=O)N1CCN(c2nc(Cl)ncc2Br)CC1)C(C)C (stereo not drawn) |  |  |  |  |  |
| 2.25 | O=S(=O)(c1cc(C(F)(F)F)cc(C(F)(F)F)c1)N1CCN(c2nc(Cl)ncc2Br)CC1 |  |  |  |  |  |
| 0.0226 | O=[N+]([O-])c1cc(C(F)(F)F)ccc1S(=O)(=O)N1CCN(c2nc(Cl)ncc2Br)CC1 |  |  |  |  |  |
| 1.44 | O=C(c1cc(Cl)c(Cl)c(Cl)n1)N1CCN(c2nc(Cl)ncc2Br)CC1 |  |  |  |  |  |
| 0.019 | O=C(c1ccc(C(F)(F)F)cc1)N1CCN(c2nc(Cl)ncc2Br)CC1 | 7.12 µg/mL | 4.92 µg/mL | 10.3 µg/mL | > 40 | 8.23 µg/mL |
| 0.64 | O=S(=O)(c1ccc(-c2ccccc2)cc1)N1CCN(c2nc(Cl)ncc2Br)CC1 |  |  |  |  |  |
| > 500 | O=S(=O)(C1CC1)N1CCN(c2nc(Cl)ncc2Br)CC1 |  |  |  |  |  |
| 0.024 | O=C(c1ccc(C(F)(F)F)cc1)N1CCN(c2nc(N3CCOCC3)ncc2Br)CC1 | 9.88 µg/mL | 4.45 µg/mL | 9.17 µg/mL | > 40 | 6.44 µg/mL |
